Results as given in US9845349B2 (priority 2012, dated 2017).
“And” between values parts separate entries of the source, which are not always exact repeats. Identical values can stand only once.

tested on: LFG2:4B10 mAb; conditions: not given

Substance | Response R | Kd | binding response [nm] | improvement in binding response versus native epitope THQDEIYEQK-biotin [fold]
TFKAEIGGGSK-biotin | 0.2612 and 0.2492 |  |  | 
TFKDAIGGGSK-biotin | 1.0132 | 0.0245 µM |  | 
TAKDEIGGGSK-biotin | 3.7854 and 3.7743 | 0.0315 µM and 0.0209 µM |  | 
THKDEIGGGSK-biotin | 2.3704 | 0.06 µM |  | 
THQDEIYEQK-biotin | 0.7024 | 0.0531 µM | 0.7 | 
AFKDEIGGGSK-biotin | 0.556 and 0.5352 | 0.0287 µM and 0.0351 µM |  | 
TFKDEAGGGSK-biotin | 5.2909 | 0.0164 µM |  | 
TFQDEIGGGSK-biotin | 1.3414 | 0.0344 µM |  | 
TFADEIGGGSK-biotin | 0.4475 and 0.4596 | 0.0252 µM and 0.0239 µM |  | 
TFKDEIGGGSK-biotin | 4.8387 | 0.00997 µM | 4.83 | ~7

same assay, conditions: read-out: dissociation (KD)

Substance | Kd [µM]
THQDEIYEQK-biotin | 0.053
TFKDEIGGGSK-biotin | 0.0139
